Assay results published in PubChem BioAssay AID330 (DTP/NCI, 2004).
Where “and” joins values, the source holds several entries; their conditions need not be identical. Equal values may be shown once. Toxic doses and inconclusive results are not listed. The calls were made as follows: active = survival T/C of 150% or more; inactive = T/C below 125% in these data.

Test system: P388 leukemia ip, CD2F1 mice, survival T/C
Test: NCI In Vivo Anticancer Drug Screen. Data for tumor model P388 Leukemia (intraperitoneal) in CD2F1 (CDF1) mice
Conditions: endpoint: median survival time, higher = longer survival
Procedure, shortened: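 Mice carrying the transplanted tumor received test compound or vehicle. Survival was recorded in each group, and the value is the treated-group measurement divided by that of the vehicle-treated control group.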

[1] = dose: 100.0 mg/kg/injection, schedule: Q04DX003 (ip), vehicle: Klucel (hydroxypropylcellulose) (HPC)
[2] = dose: 200.0 mg/kg/injection, schedule: Q04DX003 (ip), vehicle: Klucel (hydroxypropylcellulose) (HPC)
[3] = dose: 50.0 mg/kg/injection, schedule: Q01DX005 (ip), vehicle: saline with Tween-80
[4] = dose: 100.0 mg/kg/injection, schedule: Q01DX005 (ip), vehicle: saline with Tween-80
[5] = dose: 50.0 mg/kg/injection, schedule: Q01DX009 (ip), vehicle: saline with Tween-80
[6] = dose: 100.0 mg/kg/injection, schedule: Q01DX009 (ip), vehicle: saline with Tween-80
[7] = dose: 200.0 mg/kg/injection, schedule: Q01DX009 (ip), vehicle: saline with Tween-80
[8] = dose: 50.0 mg/kg/injection, schedule: Q01DX005 (ip), vehicle: Klucel (hydroxypropylcellulose) (HPC)
[9] = dose: 100.0 mg/kg/injection, schedule: Q01DX005 (ip), vehicle: Klucel (hydroxypropylcellulose) (HPC)
[10] = dose: 200.0 mg/kg/injection, schedule: Q01DX005 (ip), vehicle: saline with Tween-80
[11] = dose: 25.0 mg/kg/injection, schedule: Q01DX009 (ip), vehicle: Klucel (hydroxypropylcellulose) (HPC)
[12] = dose: 60.0 mg/kg/injection, schedule: Q01DX005 (ip), vehicle: saline with Tween-80
[13] = dose: 120.0 mg/kg/injection, schedule: Q01DX005 (ip), vehicle: saline with Tween-80

Measured: T/C

O=C(O)c1ccccc1C(=O)OCc1ccccc1
inactive: [1] 100 % of control | [2] 100 % of control | dose: 400.0 mg/kg/injection, schedule: Q04DX003 (ip), vehicle: Klucel (hydroxypropylcellulose) (HPC) 97 % of control

C=CC1(C)OC(=NC(C)(C)CO)c2cc(C)c(OC)cc21 (centres undefined)
inactive: [3] 98 % of control | [4] 97 % of control

O=C(CCCCCCCCC(=O)Nc1ccccc1)Nc1ccccc1
inactive: dose: 50.0 mg/kg/injection, schedule: Q01DX001 (ip), vehicle: saline with Tween-80 103 % of control | dose: 100.0 mg/kg/injection, schedule: Q01DX001 (ip), vehicle: saline with Tween-80 103 % of control | dose: 200.0 mg/kg/injection, schedule: Q01DX001 (ip), vehicle: saline with Tween-80 100 % of control | dose: 400.0 mg/kg/injection, schedule: Q01DX001 (ip), vehicle: saline with Tween-80 108 % of control

O=C(O)C1=C(C=C2CCCCC2)OCCC1
inactive: [5] 88 % of control | [6] 92 % of control | [7] 95 % of control

CC1C(=O)CCC2C1(C)CCC1C2(C)CCC2(C)C3CC(C)(C(=O)O)CCC3(C)CCC12C (centres undefined)
inactive: dose: 12.5 mg/kg/injection, schedule: Q01DX005 (ip), vehicle: Klucel (hydroxypropylcellulose) (HPC) 94 % of control | dose: 25.0 mg/kg/injection, schedule: Q01DX005 (ip), vehicle: Klucel (hydroxypropylcellulose) (HPC) 100 % of control | [8] 88 % of control | [9] 87 % of control

C=CC1CC(NC(=O)OCCCC)C(=O)O1 (centres undefined)
inactive: [3] 99 % of control | [4] 101 % of control | [10] 102 % of control

CCOC(=O)Nc1nc2ccc(SC#N)cc2s1
inactive: dose: 6.25 mg/kg/injection, schedule: Q01DX009 (ip), vehicle: Klucel (hydroxypropylcellulose) (HPC) 107 % of control | dose: 12.5 mg/kg/injection, schedule: Q01DX009 (ip), vehicle: Klucel (hydroxypropylcellulose) (HPC) 107 % of control | [11] 96 % of control

CCOC(=O)Nc1cc(Cl)ccc1O
inactive: dose: 100.0 mg/kg/injection, schedule: Q04DX003 (ip), vehicle: saline with Tween-80 90 % of control | dose: 200.0 mg/kg/injection, schedule: Q04DX003 (ip), vehicle: saline with Tween-80 90 % of control | dose: 400.0 mg/kg/injection, schedule: Q04DX003 (ip), vehicle: saline with Tween-80 90 % of control

O=C(O)Cc1cn2cccnc2n1
inactive: dose: 50.0 mg/kg/injection, schedule: Q04DX002 (ip), vehicle: saline with Tween-80 115 % of control | dose: 100.0 mg/kg/injection, schedule: Q04DX002 (ip), vehicle: saline with Tween-80 99 % of control | dose: 200.0 mg/kg/injection, schedule: Q04DX002 (ip), vehicle: saline with Tween-80 96 % of control

Nc1nc(N)c2c(n1)NC(=O)CC2c1ccccc1 (centres undefined)
inactive: [12] 97 % of control | [13] 90 % of control | dose: 240.0 mg/kg/injection, schedule: Q01DX005 (ip), vehicle: saline with Tween-80 90 % of control

COC(=O)c1cc(-c2ccc3ccccc3c2)[nH]c(=O)c1C#N
inactive: dose: 30.0 mg/kg/injection, schedule: Q01DX005 (ip), vehicle: saline with Tween-80 100 % of control | [12] 91 % of control and 92 % of control | [13] 96 % of control

CC(/C(=N/O)c1ccccc1)N1C(=O)c2ccccc2C1=O (centres undefined)
inactive: dose: 60.0 mg/kg/injection, schedule: Q01DX005 (ip), vehicle: Klucel (hydroxypropylcellulose) (HPC) 100 % of control | dose: 120.0 mg/kg/injection, schedule: Q01DX005 (ip), vehicle: Klucel (hydroxypropylcellulose) (HPC) 99 % of control | dose: 240.0 mg/kg/injection, schedule: Q01DX005 (ip), vehicle: Klucel (hydroxypropylcellulose) (HPC) 96 % of control

C[N+](C)(C)C.O=C([CH-]C(=O)C(F)(F)F)c1ccccc1.O=C([CH-]C(=O)C(F)(F)F)c1ccccc1.O=C([CH-]C(=O)C(F)(F)F)c1ccccc1.O=C([CH-]C(=O)C(F)(F)F)c1ccccc1.[Eu+3]
inactive: [11] 99 % of control | dose: 50.0 mg/kg/injection, schedule: Q01DX009 (ip), vehicle: Klucel (hydroxypropylcellulose) (HPC) 106 % of control and 113 % of control | [5] 103 % of control | dose: 100.0 mg/kg/injection, schedule: Q01DX009 (ip), vehicle: Klucel (hydroxypropylcellulose) (HPC) 112 % of control and 117 % of control | [6] 99 % of control | dose: 200.0 mg/kg/injection, schedule: Q01DX009 (ip), vehicle: Klucel (hydroxypropylcellulose) (HPC) 113 % of control

Cc1ccc(S(=O)(=O)N(C)C=O)cc1
inactive: [5] 100 % of control | [6] 103 % of control | [7] 101 % of control

CCCCCCCCCCCCCS
inactive: [5] 118 % of control | dose: 132.0 mg/kg/injection, schedule: Q04DX003 (ip), vehicle: saline with Tween-80 104 % of control

NC(=O)N/N=C1\CSCc2ccccc21
inactive: dose: 25.0 mg/kg/injection, schedule: Q01DX009 (ip), vehicle: other 93 % of control | dose: 50.0 mg/kg/injection, schedule: Q01DX009 (ip), vehicle: other 92 % of control | dose: 100.0 mg/kg/injection, schedule: Q01DX009 (ip), vehicle: other 93 % of control | dose: 200.0 mg/kg/injection, schedule: Q01DX009 (ip), vehicle: other 99 % of control | dose: 400.0 mg/kg/injection, schedule: Q01DX009 (ip), vehicle: other 117 % of control

C[CH2][Sn]([Cl])([CH2]C)[c]1cc[c]([Sn]([Cl])([CH2]C)[CH2]C)cc1
inactive: dose: 0.02 mg/kg/injection, schedule: Q01DX005 (ip), vehicle: Klucel (hydroxypropylcellulose) (HPC) 118 % of control

CCC(Oc1c2ccoc2c(OC)c2oc(=O)cc(O)c12)C(=O)O (centres undefined)
inactive: [3] 108 % of control | [4] 95 % of control | [10] 100 % of control

[Cl][Pd][Cl]
inactive: dose: 3.0 mg/kg/injection, schedule: Q01DX009 (ip), vehicle: saline with Tween-80 95 % of control | dose: 6.0 mg/kg/injection, schedule: Q01DX009 (ip), vehicle: saline with Tween-80 113 % of control | dose: 12.0 mg/kg/injection, schedule: Q01DX009 (ip), vehicle: saline with Tween-80 122 % of control

Nc1nnc2nc(CC(=O)Cc3ccccc3)c(CC(=O)Cc3ccccc3)nn12
inactive: dose: 60.0 mg/kg/injection, schedule: Q01DX005 (ip), vehicle: saline 101 % of control | dose: 120.0 mg/kg/injection, schedule: Q01DX005 (ip), vehicle: saline 100 % of control | dose: 240.0 mg/kg/injection, schedule: Q01DX005 (ip), vehicle: saline 100 % of control

COc1cc([C@@H]2c3cc4c(cc3C[C@H]3COC(=O)[C@@H]32)OCO4)cc2c1OCO2
inactive: dose: 1.8 mg/kg/injection, schedule: Q01DX009 (ip), vehicle: distilled water + Tween-80 113 % of control | dose: 3.0 mg/kg/injection, schedule: Q01DX009 (ip), vehicle: Klucel (hydroxypropylcellulose) (HPC) 109 % of control | dose: 3.75 mg/kg/injection, schedule: Q01DX009 (ip), vehicle: distilled water + Tween-80 95 % of control | dose: 6.0 mg/kg/injection, schedule: Q01DX009 (ip), vehicle: Klucel (hydroxypropylcellulose) (HPC) 118 % of control | dose: 12.0 mg/kg/injection, schedule: Q01DX009 (ip), vehicle: Klucel (hydroxypropylcellulose) (HPC) 122 % of control

COC1=CP(C)(=S)CC1 (centres undefined)
inactive: [1] 112 % of control | [2] 98 % of control

CCCCCCC[N+]1([O-])CCOCC1
inactive: dose: 50.0 mg/kg/injection, schedule: Q01DX009 (ip), vehicle: saline 99 % of control | dose: 100.0 mg/kg/injection, schedule: Q01DX009 (ip), vehicle: saline 100 % of control | dose: 200.0 mg/kg/injection, schedule: Q01DX009 (ip), vehicle: saline 97 % of control

Clc1cccc(Cl)c1C(Nc1nccs1)Nc1nccs1
inactive: [8] 100 % of control | [9] 103 % of control | dose: 200.0 mg/kg/injection, schedule: Q01DX005 (ip), vehicle: Klucel (hydroxypropylcellulose) (HPC) 114 % of control

Cc1ccc2nc(/N=C/c3ccc(N(C)C)cc3)sc2c1
inactive: dose: 100.0 mg/kg/injection, schedule: Q04DX003 (ip), vehicle: saline 109 % of control | dose: 200.0 mg/kg/injection, schedule: Q04DX003 (ip), vehicle: saline 107 % of control | dose: 400.0 mg/kg/injection, schedule: Q04DX003 (ip), vehicle: saline 101 % of control
